In ChEMBL document CHEMBL5230146, “Crystal Structures of Metallo-β-Lactamase (IMP-1) and Its D120E Mutant in Complexes with Citrate and the Inhibitory Effect of the Benzyl Group in Citrate Monobenzyl Ester” (J Med Chem, 2021) one finds inhibition and IC50 data, which are given here for 2 compounds.

Activity calls are given as the source filed them. No cut-off for these calls is given here. Bounds are passed on as bounds.

Test [1] has as its target Metallo-beta-lactamase type 2 (Serratia marcescens) (UniProt P52699). Kind of test: Inhibition of Serratia marcescens IMP-1 expressed in Escherichia coli BL21 (DE3) at 5 mM using cephalothin as substrate preincubated for 5 mins followed by substrate addition.
For test [2] the target is unchanged. Description: Inhibition of Serratia marcescens IMP-1 expressed in Escherichia coli BL21 (DE3) at 5 mM using cephalothin as substrate preincubated for 5 mins followed by substrate addition relative to control.
In test [3] the target is Metallo-beta-lactamase type 2 (Serratia marcescens, UniProt P52699). Description: Inhibition of Serratia marcescens IMP-1 expressed in Escherichia coli BL21 (DE3) using cephalothin as substrate preincubated for 5 mins followed by substrate addition relative to citrate.
Sequence of Metallo-beta-lactamase type 2 (P52699 whole entry): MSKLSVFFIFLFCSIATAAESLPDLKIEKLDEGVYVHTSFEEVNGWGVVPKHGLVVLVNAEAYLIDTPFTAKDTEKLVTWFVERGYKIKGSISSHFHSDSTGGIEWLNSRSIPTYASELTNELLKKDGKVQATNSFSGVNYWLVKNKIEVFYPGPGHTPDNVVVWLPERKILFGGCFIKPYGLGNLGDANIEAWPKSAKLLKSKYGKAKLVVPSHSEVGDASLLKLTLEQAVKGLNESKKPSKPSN

Sequence of Metallo-beta-lactamase type 2 (Serratia marcescens) (P52699 19-246 limits assumed): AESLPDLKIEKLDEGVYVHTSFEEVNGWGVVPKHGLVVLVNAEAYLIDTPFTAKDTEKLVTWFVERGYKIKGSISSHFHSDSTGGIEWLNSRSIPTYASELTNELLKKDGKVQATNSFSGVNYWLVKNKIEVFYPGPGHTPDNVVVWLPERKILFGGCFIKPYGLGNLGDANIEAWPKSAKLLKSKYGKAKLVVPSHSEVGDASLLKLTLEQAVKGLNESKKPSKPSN

In the case of `O=C(O)CC(O)(CC(=O)O)C(=O)O`, the inhibition (in general, how much of the control response was suppressed) in test [1] is “inactive”.

In turn, `O=C(O)CC(O)(CC(=O)OCc1ccccc1)C(=O)O` (stereo not drawn) registered an inhibition in test [2] of 30%. The IC50 (commonly the concentration that gives 50% inhibition) in test [3] is greater than 5 mM.
